Laboratory results: patent US7319094B2, “Increased and sustained in vivo gene expression using a nucleic acid, histone and amphipathic compound composition” (Rhode Island Hospital, priority 2001, dated 2008)
Entries after “also recorded” stand apart in the source; their conditions may differ.

Key:
Format in all cases: cell-based, human
[1] = test system: PNET2 cells induced to express AD7c-NTP; experiment: Cell morphology by phase contrast microscopy; conditions: IPTG-induced AD7c-NTP; insulin 50 nM, IGF-1 5 ng/ml, NGF 2.5 ng/ml, PDGF 5 ng/ml; 24-48 hours
Experimental: To examine the effects of different growth factors on AD7c-NTP expression (and over-expression), the cells were serum-starved for 16 hours, after which IPTG (1-5 mM) was added to the medium. Four hours later, the cells were stimulated with insulin (50 nM), IGF-1 (5 ng/ml), NGF ([…]), or platelet-derived growth factor (PDGF; 5 ng/ml) for 24-72 hours. The cells were analyzed for morphological changes, viability, AD7c-NTP immunoreactivity, and expression of pro-apoptosis genes, survival genes, and phospho-tau.
Cells were serum-starved for 24 hours. However, since several hours of IPTG stimulation were required to induce AD7c-NTP gene expression or CAT activity, IPTG (3 mM) was added to the cultures after 16 hours of serum-starvation, i.e. 8 hours prior to growth factor stimulation. The cells were stimulated with insulin (50 nM), IGF-1 (5 ng/ml), NGF (2.5 ng/ml), or PDGF (5 ng/ml) and examined by phase contrast microscopy 24-48 hours later. PNET2 cells could be maintained in serum-free medium for 5 to 7 days with insulin, IGF-1, NGF, or PDGF as the only growth stimulus. In addition, each of these growth factors supports DNA synthesis and promotes modest outgrowth of multipolar neurites in PNET2 cells.

[2] = test system: p53; experiment: p53 expression, Western blot / MICE assay; conditions: PNET2 cells induced to express AD7c-NTP, growth factor stimulated
Excerpt: (§1) Standard Western blot assays wew used to measure cellular levels of p53, Bcl-2, p21/Waf1, phospho-tau, tau, c-fos, NTP, and activated (phosphorylated) forms of Erk mitogen activated protein (MAP) kinase, amino-terminal c-jun-activated kinase (pJNK), and p38/HOG1. Immunoprecipitation followed by Western blot analysis was used to measure p85 subunit associated with IRS1. For Western blot analysis of p53 Bcl-2, phospho-tau, tau, c-fos, and NTP, the cells were lysed in ice cold radioimmunoprecipitation assay (RIPA) buffer supplemented with protease and phosphatase inhibitors. For the immunoprecipitation studies, Western blot analysis of phospho-Erk, pJNK, and p38, and the PI3 kinase assays, the cells were harvested in Triton lysis buffer supplemented with protease and phosphatase inhibitors. Protein concentrations were measured using the BCA assay (Pierce, Rockford, Ill.). Samples containing 60 μg of protein were fractionated by sodium dodecyl sulfate polyacrylamide gel electrophoresis (SDS-PAGE), then transferred to PVDF membranes, and analyzed by Western immunoblotting. Immunoreactivity was detected with horseradish peroxidase conjugated secondary IgG and PicoWest enhanced chemiluminescence reagents (Pierce Chemical Company, Rockford, Ill.). CAT activity was measured using known methods.
(§2) The MICE assay is known in the art (e.g., as described by de la Monte et al., 1999, Biotechniques 26:107301076). The assay is a rapid and sensitive method for quantifying immunoreactivity in 96-well micro-cultures and combines the advantages of the enzyme-linked immunosorbant assay with immunocytochemical staining to permit sensitive in situ quantification of protein expression with values normalized to cell density. […] Immunoreactivity was detected using horseradish peroxidase conjugated secondary antibody (Pierce, Rockford, Ill.) and the TMB soluble peroxidase substrate (Pierce, Rockford, Ill.). Absorbances were measured at 450 nm using a Spectracount plate reader. […]

[3] = test system: Bcl-2; experiment: Bcl-2 expression, Western blot / MICE assay; conditions: PNET2 cells induced to express AD7c-NTP, growth factor stimulated
Excerpt: as §1, §2

[4] = test system: IRS-1-associated PI3 kinase; experiment: IRS-1-associated PI3 kinase activity; conditions: 3 mM IPTG-induced cultures, 30 minutes of stimulation
Experimental: The cells were harvested in Triton lysis buffer supplemented with protease and phosphatase inhibitors. Total PI3K was immunoprecipitated from 500 μg protein in cell lysates using rabbit polyclonal antibodies to the p85 subunit of PI3K and Protein A sepharose. The immunoprecipitants were incubated for 5 minutes at room temperature with 10 μg of sonicated phosphatidylinositol in HEPES buffer (200 mM HEPES, 4 mM EGTA, 4 mM sodium phosphate, pH 7.0). Reactions were initiated by the addition of 5 μCi [α^32p] ATP, 15 mM MgCl2, 150 mM ATP, 1.5 mM Tris-HCl, pH 7.4, and 15 mM NaCl. […] Phosphorylated lipids were analyzed by thin layer chromatography using gel plates pre-coated with 1% oxalate (Merck, White House Station, N.J.). PI3K activity was measured with a phosphorimager.
PI3 kinase is an important mediator of neuronal survival. […] Since insulin and IGF-1 can activate PI3 kinase through the insulin-receptor substrate-1 (IRS-1) or through IRS-1-independent pathways, both IRS1-associated PI3 kinase and total PI3 kinase activities were measured. […] Levels of PI3 kinase activity were measured in anti-phospho-tyrosine (PY) immunoprecipitates. […] Similarly, PI3 kinase activity was readily detected in the PY immunoprecipitates prepared with cells stimulated with insulin or PDGF.

How did the cell morphology [1] turn out when “insulin: Human insulin purchased from Novagen” was run?
Its cell morphology is “neurite retraction, cell rounding and increased cell death”.

And the p53 level [2]?
The p53 level was “high levels of p53; also recorded: significantly increased levels”.

And the Bcl-2 level [3]?
The Bcl-2 level was “virtually undetectable Bcl-2 expression; also recorded: reduced levels”.

What about the “IRS-1-associated PI3 kinase activity” value [4] of the same substance?
Its value is “sharply increased”.
